Experimental data taken from PMC8752837, “Structural basis of BAK activation in mitochondrial apoptosis initiation” (Nature Communications, 2022).
Marks after values point to notes of the source that are not given here.

Biological target: T1, Human BAK-∆TM-His6 (BAK) (Homo sapiens, UniProt Q16611)
T1 construct: C-terminus truncated recombinant human BAK containing C-terminal 6× histidine tag (MEAS-BAK); made in house; host or cells: E. coli T7 Express pLac I/Y
T1 sequence (Q16611 1-186 limits assumed): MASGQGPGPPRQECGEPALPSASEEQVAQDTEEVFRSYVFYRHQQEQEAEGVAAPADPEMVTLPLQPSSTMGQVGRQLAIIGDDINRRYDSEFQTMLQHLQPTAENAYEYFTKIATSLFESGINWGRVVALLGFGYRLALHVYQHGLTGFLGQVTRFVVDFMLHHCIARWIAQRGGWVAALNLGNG
Assay: Liposome permeabilization assay (ANTS/DPX dye release from LUVs): activation of WT BAK by BH3 peptides;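 for AUC for Experiment-2 (Mean): traces normalized between buffer minimum and 3% CHAPS maximum fluorescence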;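 for AUC for Experiment-3 (Mean): traces normalized between buffer minimum and 3% CHAPS maximum fluorescence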
Type: biochemical
Parameters: AUC for Experiment-2 (Mean) / AUC for Experiment-3 (Mean) / AUC for Experiment-1 (Mean):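 traces normalized between buffer minimum and 3% CHAPS maximum fluorescence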
Conditions: for AUC for Experiment-1 (Mean) / AUC for Experiment-2 (Mean) / AUC for Experiment-3 (Mean): AUC 0-88 mins of liposome permeabilization; for AUC for Experiment-1 (Mean): Experiment-1, mean of N replicates; for AUC for Experiment-2 (Mean): Experiment-2, mean of N replicates; for AUC for Experiment-3 (Mean): Experiment-3, mean of N replicates; for EC50: Fig. 4e, AUC vs peptide dose (Suppl. Fig. 6b), n = 2 experiments each of n = 3 technical replicates, read-out: EC50 LP; for EC50 / direct BAK activation compared to WT BID BH3: 50 nM BAK; for direct BAK activation compared to WT BID BH3: liposome permeabilization, Fig. 4c, e
Procedure: We performed liposome permeabilization assays as previously described[43]–[46]. […] We mixed the lipid film in ANTS/DPX solution by vortexing and sonication (~15 min) followed by extrusion through polycarbonate membrane of 2 μm pore size (Avanti Polar lipids) to generate homogenous large unilamellar vesicles (LUVs). We separated LUVs from free ANTS/DPX by S500 size exclusion chromatography and stored them at 4 °C in the dark. We prepared peptide and protein dilutions in 96-well black flat bottom plates (Costar) kept on ice. […] We quantified liposome permabilization by integrating area under curve (AUC) of normalized traces based on the Simpson’s equation, and analyzed that data in Excel and GraphPad Prism. AUC measurements reflect the kinetic and extent of liposome permeabilization and provide quantitative means for comparison between different experimental conditions (e.g., BAK mutants with gross or partial variation in activity).

| Substance | AUC for Experiment-1 (Mean) (1 μM peptide + 50 nM BAK) | AUC for Experiment-2 (Mean) (1 μM peptide + 50 nM BAK) | AUC for Experiment-3 (Mean) (1 μM peptide + 50 nM BAK) | AUC for Experiment-1 (Mean) (50 μM peptide + 50 nM BAK) | AUC for Experiment-2 (Mean) (50 μM peptide + 50 nM BAK) | AUC for Experiment-3 (Mean) (50 μM peptide + 50 nM BAK) | EC50 | direct BAK activation compared to WT BID BH3 |
| --- | --- | --- | --- | --- | --- | --- | --- | --- |
| Ac-EDIIRNIARHWAQVGDSMDRSI-NH2 [W(2)] | 4.9093 | 3.613 | 3.7546 | 2.3973 | 4.6314 | 0.7562* | 1080 ± 453 nM | less direct BAK activation compared to WT BID BH3 |
| Ac-EDIIRNIARHYAQVGDSMDRSI-NH2 [Y(2)] | 4.2367 | 5.3994 | 3.7484 | 8.0372 | 6.4388 | 4.7986 | 1210 ± 696 nM | less direct BAK activation compared to WT BID BH3 |
| Ac-EDIIRNWARHLAQVGDSMDRSI-NH2 [W(1)] | 5.265 | 7.491 | 5.218 | 7.873 | 8.991 | 6.529 | 1700 ± 446 nM | less direct BAK activation compared to WT BID BH3 |

Stronger by EC50, values ahead:

| AUC for Experiment-1 (Mean) (1 μM peptide + 50 nM BAK) | AUC for Experiment-2 (Mean) (1 μM peptide + 50 nM BAK) | AUC for Experiment-3 (Mean) (1 μM peptide + 50 nM BAK) | AUC for Experiment-1 (Mean) (50 μM peptide + 50 nM BAK) | AUC for Experiment-2 (Mean) (50 μM peptide + 50 nM BAK) | AUC for Experiment-3 (Mean) (50 μM peptide + 50 nM BAK) | EC50 | Substance | direct BAK activation compared to WT BID BH3 |
| --- | --- | --- | --- | --- | --- | --- | --- | --- |
| 8.056 | 3.548 | 5.055 | 8.1746 | 3.897 | 7.008 | 366 ± 89.2 nM | Ac-EDIIRNIARHMAQVGDSMDRSI-NH2 [M(2)] |  |
| 10.629 | 6.9165 | 10.58 | 9.2417 | 6.0451 | 8.2141 | 290 ± 42.6 nM | Ac-EDIIRNIARHFAQVGDSMDRSI-NH2 [F(2)] |  |
